According to the NIST ThermoML archive (doi:10.1021/acs.jced.6b00516):

Test: xn = mol fraction of the nth substance listed
Details: for viscosity / speed of sound: 102 kPa, Liquid; for viscosity: Concentric cylinders viscometry; for speed of sound: Frequency=3 MHz, Sing-around technique in a fixed-path interferometer; for surface tension liquid-gas: 294.4 K, Sessile Drop

CCCCC1CCCCC1 [butylcyclohexane] + Cc1ccccc1
Details | speed of sound [m/s] | viscosity [mPa·s]
293.15 K, x1 = 0.0681 | 1321.1 | 0.622
293.15 K, x1 = 0.1544 | 1316.7 | 0.649
293.15 K, x1 = 0.2197 | 1314.5 | 0.678
293.15 K, x1 = 0.3045 | 1313 | 0.721
293.15 K, x1 = 0.3964 | 1312.8 | 0.774
293.15 K, x1 = 0.4964 | 1313.5 | 0.838
293.15 K, x1 = 0.6046 | 1315.6 | 0.916
293.15 K, x1 = 0.7244 | 1318.9 | 1.02
293.15 K, x1 = 0.8548 | 1323.3 | 1.16
293.15 K, x1 = 1 | – | 1.31
303.15 K, x1 = 0.0681 | 1278.6 | 0.552
303.15 K, x1 = 0.1544 | 1274.6 | 0.578
303.15 K, x1 = 0.2197 | 1272.7 | 0.603
303.15 K, x1 = 0.3045 | 1271.6 | 0.638
303.15 K, x1 = 0.3964 | 1271.6 | 0.683
303.15 K, x1 = 0.4964 | 1272.7 | 0.735
303.15 K, x1 = 0.6046 | 1275 | 0.8
303.15 K, x1 = 0.7244 | 1278.6 | 0.885
303.15 K, x1 = 0.8548 | 1283.3 | 0.991
303.15 K, x1 = 1 | – | 1.12
313.15 K, x1 = 0.0681 | 1236.5 | 0.495
313.15 K, x1 = 0.1544 | 1232.9 | 0.518
313.15 K, x1 = 0.2197 | 1231.4 | 0.538
313.15 K, x1 = 0.3045 | 1230.6 | 0.568
313.15 K, x1 = 0.3964 | 1230.9 | 0.607
313.15 K, x1 = 0.4964 | 1232.3 | 0.651
313.15 K, x1 = 0.6046 | 1234.9 | 0.704
313.15 K, x1 = 0.7244 | 1238.8 | 0.775
313.15 K, x1 = 0.8548 | 1243.7 | 0.862
313.15 K, x1 = 1 | – | 0.961
323.15 K, x1 = 0.0681 | 1194.9 | 0.446
323.15 K, x1 = 0.1544 | 1191.8 | 0.466
323.15 K, x1 = 0.2197 | 1190.6 | 0.484
323.15 K, x1 = 0.3045 | 1190.1 | 0.51
323.15 K, x1 = 0.3964 | 1190.7 | 0.541
323.15 K, x1 = 0.4964 | 1192.5 | 0.58
323.15 K, x1 = 0.6046 | 1195.4 | 0.625
323.15 K, x1 = 0.7244 | 1199.6 | 0.683
323.15 K, x1 = 0.8548 | 1204.8 | 0.754
323.15 K, x1 = 1 | – | 0.837
333.15 K, x1 = 0.0681 | 1153.9 | 0.405
333.15 K, x1 = 0.1544 | 1151.2 | 0.422
333.15 K, x1 = 0.2197 | 1150.3 | 0.437
333.15 K, x1 = 0.3045 | 1150.2 | 0.46
333.15 K, x1 = 0.3964 | 1151.1 | 0.486
333.15 K, x1 = 0.4964 | 1153.2 | 0.519
333.15 K, x1 = 0.6046 | 1156.5 | 0.558
333.15 K, x1 = 0.7244 | 1161 | 0.604
333.15 K, x1 = 0.8548 | 1166.5 | 0.663
333.15 K, x1 = 1 | – | 0.735
343.15 K, x1 = 0.0681 | – | 0.37
343.15 K, x1 = 0.1544 | – | 0.379
343.15 K, x1 = 0.2197 | – | 0.397
343.15 K, x1 = 0.3045 | – | 0.418
343.15 K, x1 = 0.3964 | – | 0.438
343.15 K, x1 = 0.4964 | – | 0.469
343.15 K, x1 = 0.6046 | – | 0.502
343.15 K, x1 = 0.7244 | – | 0.535
343.15 K, x1 = 0.8548 | – | 0.586
343.15 K, x1 = 1 | – | 0.648
353.15 K, x1 = 0.0681 | – | 0.325
353.15 K, x1 = 0.1544 | – | 0.345
353.15 K, x1 = 0.2197 | – | 0.356
353.15 K, x1 = 0.3045 | – | 0.373
353.15 K, x1 = 0.3964 | – | 0.395
353.15 K, x1 = 0.4964 | – | 0.426
353.15 K, x1 = 0.6046 | – | 0.451
353.15 K, x1 = 0.7244 | – | 0.49
353.15 K, x1 = 0.8548 | – | 0.532
353.15 K, x1 = 1 | – | 0.576

Details | surface tension liquid-gas [mN/m]
x1 = 0.0681 | 28.1
x1 = 0.1544 | 27.7
x1 = 0.2197 | 27.5
x1 = 0.3045 | 27.3
x1 = 0.3964 | 27.2
x1 = 0.4964 | 27
x1 = 0.6046 | 26.9
x1 = 0.7244 | 26.7

CCCCC1CCCCC1 [butylcyclohexane] + CCCCCCCCCCCCCCCC
Details | speed of sound [m/s] | viscosity [mPa·s]
293.15 K, x1 = 0.1524 | 1353.6 | 3.07
293.15 K, x1 = 0.2876 | 1349.9 | 2.76
293.15 K, x1 = 0.4091 | 1346.4 | 2.48
293.15 K, x1 = 0.5182 | 1343.3 | 2.25
293.15 K, x1 = 0.6173 | 1340.4 | 2.04
293.15 K, x1 = 0.7078 | 1337.4 | 1.86
293.15 K, x1 = 0.7902 | 1334.9 | 1.7
293.15 K, x1 = 0.8658 | 1332.7 | 1.55
293.15 K, x1 = 0.9355 | 1330.4 | 1.42
293.15 K, x1 = 1 | – | 1.31
303.15 K, x1 = 0.1524 | 1316.4 | 2.46
303.15 K, x1 = 0.2876 | 1312.6 | 2.23
303.15 K, x1 = 0.4091 | 1309 | 2.03
303.15 K, x1 = 0.5182 | 1305.6 | 1.85
303.15 K, x1 = 0.6173 | 1302.5 | 1.69
303.15 K, x1 = 0.7078 | 1299.2 | 1.55
303.15 K, x1 = 0.7902 | 1296.4 | 1.42
303.15 K, x1 = 0.8658 | 1293.8 | 1.31
303.15 K, x1 = 0.9355 | 1291.2 | 1.21
303.15 K, x1 = 1 | – | 1.12
313.15 K, x1 = 0.1524 | 1279.7 | 2.01
313.15 K, x1 = 0.2876 | 1275.8 | 1.84
313.15 K, x1 = 0.4091 | 1272 | 1.68
313.15 K, x1 = 0.5182 | 1268.5 | 1.54
313.15 K, x1 = 0.6173 | 1265.1 | 1.42
313.15 K, x1 = 0.7078 | 1261.5 | 1.31
313.15 K, x1 = 0.7902 | 1258.3 | 1.21
313.15 K, x1 = 0.8658 | 1255.3 | 1.12
313.15 K, x1 = 0.9355 | 1252.3 | 1.03
313.15 K, x1 = 1 | – | 0.961
323.15 K, x1 = 0.1524 | 1243.6 | 1.68
323.15 K, x1 = 0.2876 | 1239.6 | 1.54
323.15 K, x1 = 0.4091 | 1235.5 | 1.42
323.15 K, x1 = 0.5182 | 1231.8 | 1.31
323.15 K, x1 = 0.6173 | 1228.2 | 1.21
323.15 K, x1 = 0.7078 | 1224.3 | 1.12
323.15 K, x1 = 0.7902 | 1220.8 | 1.04
323.15 K, x1 = 0.8658 | 1217.6 | 0.966
323.15 K, x1 = 0.9355 | 1214.1 | 0.897
323.15 K, x1 = 1 | – | 0.837
333.15 K, x1 = 0.1524 | 1208.1 | 1.42
333.15 K, x1 = 0.2876 | 1203.9 | 1.31
333.15 K, x1 = 0.4091 | 1199.7 | 1.21
333.15 K, x1 = 0.5182 | 1195.7 | 1.13
333.15 K, x1 = 0.6173 | 1191.8 | 1.05
333.15 K, x1 = 0.7078 | 1187.6 | 0.972
333.15 K, x1 = 0.7902 | 1183.9 | 0.906
333.15 K, x1 = 0.8658 | 1180.3 | 0.844
333.15 K, x1 = 0.9355 | 1176.4 | 0.783
333.15 K, x1 = 1 | – | 0.735
343.15 K, x1 = 0.1524 | – | 1.22
343.15 K, x1 = 0.2876 | – | 1.13
343.15 K, x1 = 0.4091 | – | 1.05
343.15 K, x1 = 0.5182 | – | 0.977
343.15 K, x1 = 0.6173 | – | 0.912
343.15 K, x1 = 0.7078 | – | 0.851
343.15 K, x1 = 0.7902 | – | 0.797
343.15 K, x1 = 0.8658 | – | 0.745
343.15 K, x1 = 0.9355 | – | 0.694
343.15 K, x1 = 1 | – | 0.648
353.15 K, x1 = 0.1524 | – | 1.06
353.15 K, x1 = 0.2876 | – | 0.987
353.15 K, x1 = 0.4091 | – | 0.921
353.15 K, x1 = 0.5182 | – | 0.86
353.15 K, x1 = 0.6173 | – | 0.805
353.15 K, x1 = 0.7078 | – | 0.753
353.15 K, x1 = 0.7902 | – | 0.706
353.15 K, x1 = 0.8658 | – | 0.662
353.15 K, x1 = 0.9355 | – | 0.619
353.15 K, x1 = 1 | – | 0.576

Details | surface tension liquid-gas [mN/m]
x1 = 0.1524 | 26.9
x1 = 0.2876 | 26.9
x1 = 0.4091 | 26.9
x1 = 0.5182 | 26.8
x1 = 0.6173 | 26.8
x1 = 0.7078 | 26.8
x1 = 0.7902 | 26.7
x1 = 0.8658 | 26.7
x1 = 0.9355 | 26.7
